Patent US10786481B2, “Hydroquinone compounds, preparation methods therefor, and use in anti-tumor or immunomodulation therapy” (Biomedical Analysis Center, Academy of Military Medical …, priority 2016, dated 2020)

Legend:
[1] = Release experiment of target compound in human plasma; conditions: 37° C., 5 min to 9 h
Description: Mobile phase: gradient elution; A: water; B: methanol;
Chromatographic column: CAPCEL PAK MF PH-1;
Detecting instrument: TQ-S; ion source: APCI; ion detection mode: MRM;
Dissolving the target compound with DMSO, then diluting to 5 μg/mL with the normal saline of 0.9%. The human blank plasma after subpackage is preserved at −70° C., unfreezing in a refrigerator at 4° C. when used. Take 20 μL of the blank plasma, adding 20 μL of the target compound solution as above formulated, vortexing for 15 s, and left it in the water bath at 37° C. […] Take the supernatant and inject 10 μL for detection.

[2] = tested on: mice embryonic fibroblast (NIH3t3); assay: Cytotoxicity, MTS method, NIH3T3 cell; type: cell-based; conditions: Mus musculus, NIH3T3, MTS method; read-out: IC50(mM) NIH3T3 cell
Description: (§1) The toxicity of compounds is detected with MTS method in the immortalized mice bone marrowmacrophages (IBMM), mice embryonic fibroblast (NIH3t3) and humanized embryonic nephrocyte.

[3] = tested on: humanized embryonic nephrocyte (HEK293 cell); assay: Cytotoxicity, MTS method, HEK293 cell; type: cell-based; conditions: Homo sapiens, HEK293, MTS method; read-out: IC50(mM) HEK293 cell
Description: as §1

[4] = tested on: immortalized mice bone marrowmacrophages (IBMM); assay: Cytotoxicity, MTS method, IBMM cell; type: cell-based; conditions: Mus musculus, Bone marrow macrophage, MTS method; read-out: IC50(mM) IBMM cell
Description: as §1

Row | Compound | release of BHA in human plasma [1] | further results
1 | COc1ccc(OC(=O)CCCC(=O)c2ccccc2)c(C(C)(C)C)c1 [XH2043-1, (2-tert-butyl-4-methoxyphenol) 4-benzoyl butyrate] | releases BHA | 
2 | COc1ccc(OC(=O)C2=CCCCC2)c(C(C)(C)C)c1 [XH2015, 2-tert-butyl-4-methoxyphenol cyclohexenecarboxylate] | releases BHA | IC50 [2]: 0.194 mM; IC50 [3]: 0.109 mM; IC50 [4]: 0.147 mM
3 | COc1ccc(OC(=O)CCc2ccc(F)cc2)c(C(C)(C)C)c1 [XH2024, (2-tert-butyl-4-methoxyphenol) 3-(4-fluorophenyl)-propionate] | releases BHA | 
4 | COc1ccc(OC(=O)c2ccccc2-c2ccccc2C(=O)Oc2ccc(OC)cc2C(C)(C)C)c(C(C)(C)C)c1 [XH2020, bis(2-tert-butyl-4-methoxyphenol)2,2′-biphenyldicarboxylate] | releases BHA | 
5 | COc1ccc(OC(=O)c2ccc3ccccc3c2)c(C(C)(C)C)c1 [XH2036-4, (2-tert-butyl-4-methoxyphenol) 2-naphthoate] | releases BHA | IC50 [2]: 0.232 mM; IC50 [3]: 0.253 mM; IC50 [4]: 0.23 mM
6 | COc1ccc(OC(=O)CNC(=O)OC(C)(C)C)c(C(C)(C)C)c1 [XH2034, N-tert-butoxycarbonylglycine(2-tert-butyl-4-methoxyphenol)ester] | releases BHA | 
7 | COc1ccc(OC(=O)c2ccc([N+](=O)[O-])cc2F)c(C(C)(C)C)c1 [XH2041-4, (2-tert-butyl-4-methoxyphenol) 2-fluoro-4-nitryl benzoate] | releases BHA | 
8 | COc1ccc(OC(=O)c2cccc(C#N)c2)c(C(C)(C)C)c1 [XH2036-2, (2-tert-butyl-4-methoxyphenol) 3-cyanobenzoate] | releases BHA | 
9 | COc1ccc(OC(=O)c2cnccc2C)c(C(C)(C)C)c1 [XH2030, (2-tert-butyl-4-methoxyphenol) 4-methylpyridine-3-formate] | releases BHA | 
10 | COc1ccc(OC(=O)c2cc(Cl)nnc2Cl)c(C(C)(C)C)c1 [XH2038-1, (2-tert-butyl-4-methoxyphenol) 3,6-dichloropyridazine-4-formate] |  | IC50 [2]: 0.236 mM; IC50 [3]: 0.33 mM; IC50 [4]: 0.222 mM
11 | COc1ccc(OC(=O)c2cccnc2Cl)c(C(C)(C)C)c1 [XH2038-4, (2-tert-butyl-4-methoxyphenol) 2-chloro-3-picolinate] | releases BHA | 
12 | COc1ccc(OC(=O)C(C)F)c(C(C)(C)C)c1 (stereo not drawn) [XH2039-4, (2-tert-butyl-4-methoxyphenol) 2-fluoropropionate] | releases BHA | 
13 | COc1ccc(OC(=O)c2ccc(-c3ccccc3)cc2)c(C(C)(C)C)c1 [XH2029, (2-tert-butyl-4-methoxyphenol) 4-phenylbenzoate] | releases BHA | 
14 | COc1ccc(OC(=O)CCCCCC(C)=O)c(C(C)(C)C)c1 [XH2040-5, (2-tert-butyl-4-methoxyphenol) 7-oxooctanoate] | releases BHA | 
15 | COc1ccc(OC(=O)CCc2ccc(C)cc2)c(C(C)(C)C)c1 [XH2039-1, (2-tert-butyl-4-methoxyphenol) 3-(4-methylphenyl)-propionate] | releases BHA | 
16 | COc1cc(C=CC(=O)Oc2ccc(OC)cc2C(C)(C)C)cc(OC)c1 [XH2043-2, (2-tert-butyl-4-methoxyphenol) 3,5-dimethoxy phenylacrylate] | releases BHA | 
17 | CCCCCCCCCCCCCCCC(=O)Oc1ccc(OC)cc1C(C)(C)C [XH2033, 2-tert-butyl-4-methoxyphenol hexadecylate] | releases BHA | 
18 | (2-tert-butyl-4-methoxyphenol) 1-methylcyclopropyl formate [XH2038-2] | releases BHA | 

Row | Compound | release of BHA in human plasma [1] | further results
19 | COc1ccc(OC(=O)CCc2cc(C(C)(C)C)c(O)c(C(C)(C)C)c2)c(C(C)(C)C)c1 [XH2045-2, (2-tert-butyl-4-methoxyphenol) 3-(3,5-di-tert-butyl-4-hydroxy-phenyl)propionate] | releases BHA | 
20 | COc1ccc(OC(=O)c2ccc(Cl)c(F)c2)c(C(C)(C)C)c1 [XH2035, (2-tert-butyl-4-methoxyphenol) 3-fluoro-4-chlorobenzoate] | releases BHA | 
21 | COc1ccc(OC(=O)c2cc(I)ccc2Br)c(C(C)(C)C)c1 [XH2041-3, (2-tert-butyl-4-methoxyphenol) 2-bromo-5-iodo benzoate] | releases BHA | 
22 | COc1ccc(OC(=O)c2cc(Cl)ccn2)c(C(C)(C)C)c1 [XH2043-3, (2-tert-butyl-4-methoxyphenol) 4-chloropyridine-2-formate] | releases BHA | 
23 | CCC(=O)Oc1ccc(OC)cc1C(C)(C)C [XH2016, 2-tert-butyl-4-methoxyphenol propionate] |  | IC50 [2]: 0.0186 mM; IC50 [3]: 0.065 mM; IC50 [4]: 0.148 mM
24 | di(2-tert-butyl-4-methoxyphenol) terephthalate [XH2026] | releases BHA | 
25 | C=CC(=O)Oc1ccc(OC)cc1C(C)(C)C [XH2017, 2-tert-butyl-4-methoxyphenol acrylate] |  | IC50 [2]: 0.0229 mM; IC50 [3]: 0.008 mM; IC50 [4]: 0.56 mM
26 | COc1ccc(OC(=O)C2CCCN(C(=O)OC(C)(C)C)C2)c(C(C)(C)C)c1 (stereo not drawn) [XH2041-5, (2-tert-butyl-4-methoxyphenol) N-tert-butoxycarbonylpiperidine-3-formate] | releases BHA | 
27 | COc1ccc(OC(=O)C2CCCN(C)C2)c(C(C)(C)C)c1 (stereo not drawn) [XH2043-4, (2-tert-butyl-4-methoxyphenol) N-methylpiperidine-3-formate] | releases BHA | 
28 | COc1ccc(OC(=O)CC23CC4CC(CC(C4)C2)C3)c(C(C)(C)C)c1 [XH2040-1, (2-tert-butyl-4-methoxyphenol) adamantaneacetate] | releases BHA | 
29 | di(2-tert-butyl-4-methoxyphenol) adipate [XH2046-3] | releases BHA | 
30 | COc1ccc(OC(=O)CCc2cccc([N+](=O)[O-])c2)c(C(C)(C)C)c1 [XH2028, (2-tert-butyl-4-methoxyphenol) 3-(3-nitrophenyl)propionate] | releases BHA | 
31 | COc1ccc(OC(=O)Cc2cccc(F)c2)c(C(C)(C)C)c1 [XH2022, (2-tert-butyl-4-methoxyphenol) 3-fluorophenylacetate] | releases BHA | 
32 | COc1ccc(OC(=O)C2CCCN(C(=O)OC(C)(C)C)C2)c(C(C)(C)C)c1 (stereo not drawn) [XH2025, (2-tert-butyl-4-methoxyphenol) N-tert-butoxycarbonylpiperidine-3-formate] | releases BHA | 
33 | di(2-tert-butyl-4-methoxyphenol) malonate [XH2037] | releases BHA | 
34 | COc1ccc(OC(=O)c2cnccc2OC)c(C(C)(C)C)c1 [XH2031, (2-tert-butyl-4-methoxyphenol) 4-methoxypyridine-3-formate] | releases BHA | 
35 | di(2-tert-butyl-4-methoxyphenol) p-phenylenediacetate [XH2042] | releases BHA | 
36 | COc1ccc(OC(=O)C(C)c2ccccc2)c(C(C)(C)C)c1 (stereo not drawn) [XH2039-3, (2-tert-butyl-4-methoxyphenol) 2-phenyl propionate] | releases BHA | 
